Assays:
MSA = biological target: T1, MSA (Homo sapiens, UniProt P02768); experiment: TLC measurement of pigment not coupled to MSA; format: binding
T1 construct: purchased Green Cross Corp., Korea
Description: 2 ml of 200 mg/mL MSA was added thereto to prepare the reaction mixture in total volume of 3 mL. […]
Upon completion of the reaction, the amount of the pigment not coupled to MSA was measured by performing thin layer chromatography (TLC) with the pigment-coupled MSA hourly. At this time, methanol and methylene chloride (MeOH:MeCl2) mixture was used as a solvent and the results were quantitatively analyzed by multi-gauge 3.0 software using LAS3000 (Fuji Film).

[1] = Absorption peak and molecular extinction coefficient of pigment-coupled MSA; format: physicochemical; conditions: for Wavelength (absorption peak): scan 350 nm to 850 nm
Description: The pigment-coupled MSA solution was loaded in a 96-well plate, which was scanned with visible light ranging between 350 nm and 850 nm to measure the absorbance at the peak of absorption spectrum using Varioskan Flash (Thermo Fisher Scientific Inc., Finland) spectrometer. The molecular extinction coefficient was measured by calculating the absorbance per 1 cm length according to Beer-Lambert law.

T1 sequence (P02768 25-609): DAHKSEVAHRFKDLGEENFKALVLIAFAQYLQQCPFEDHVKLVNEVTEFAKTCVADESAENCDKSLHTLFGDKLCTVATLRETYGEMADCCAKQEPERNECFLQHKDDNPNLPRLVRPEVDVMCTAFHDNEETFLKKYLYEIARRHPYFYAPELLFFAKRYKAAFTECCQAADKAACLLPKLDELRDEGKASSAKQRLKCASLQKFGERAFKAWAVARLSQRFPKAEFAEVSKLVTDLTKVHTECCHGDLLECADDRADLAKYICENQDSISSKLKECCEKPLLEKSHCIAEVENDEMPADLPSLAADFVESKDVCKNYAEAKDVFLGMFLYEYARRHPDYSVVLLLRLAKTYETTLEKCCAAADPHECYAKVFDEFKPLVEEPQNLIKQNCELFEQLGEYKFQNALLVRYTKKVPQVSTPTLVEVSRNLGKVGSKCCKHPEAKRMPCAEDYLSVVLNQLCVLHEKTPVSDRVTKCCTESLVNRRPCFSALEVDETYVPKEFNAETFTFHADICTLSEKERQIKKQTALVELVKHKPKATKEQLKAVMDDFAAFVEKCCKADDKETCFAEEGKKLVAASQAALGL

Molecule	Percentage of pigment not coupled to MSA (MSA; 10 min)	Percentage of pigment not coupled to MSA (MSA; 30 min)	Percentage of pigment not coupled to MSA (MSA; 1 hr)	Percentage of pigment not coupled to MSA (MSA; 2 hr)	Percentage of pigment not coupled to MSA (MSA; 6 hr)	Percentage of pigment not coupled to MSA (MSA; 24 hr)	Binding of pigment to MSA (in words) (MSA; Table 2)	Binding of pigment to MSA (in words) (MSA; Table 2, listed as naphthol blue black)	ε (molecular extinction coefficient) ([1]; at absorption peak, per 1 cm, Beer-Lambert law)	Wavelength (absorption peak) [1]
Nc1c(N=Nc2ccc([N+](=O)[O-])cc2)c(S(=O)(=O)[O-])cc2cc(S(=O)(=O)[O-])c(N=Nc3ccccc3)c(O)c12.[Na+].[Na+] [NBB, naphthol blue black]	0.0 ± 0.0%	0.0 ± 0.0%	0.0 ± 0.0%	0.0 ± 0.0%	0.2 ± 0.3%	0.0 ± 0.0%	bind stably and strongly to MSA and high	stably bound	62222	620 nm
brilliant blue R	7.8 ± 0.5%	7.6 ± 0.8%	7.7 ± 0.9%	6.3 ± 0.5%	5.9 ± 0.6%	3.8 ± 0.6%	–	–	–	–
nitrazine yellow [NY]	9.6 ± 0.5%	8.4 ± 0.5%	7.2 ± 0.4%	6.4 ± 0.4%	0.4 ± 0.6%	0.1 ± 0.2%	–	–	–	560 nm

— US20200009275A1, “PIGMENT-COUPLED MANNOSYL SERUM ALBUMIN COMPLEX AND LYMPH NODE-PROBING COMPOSITION COMPRISING SAME” (priority 2017, published 2020)
